Values quoted from earlier work as cited in patent US6641611B2, “Therapeutic coating for an intravascular implant” (priority 2001, dated 2003).
Where two headings read alike, the source gives them in different places.

Key:
[1] = for diabetes: high doses

CO[C@H]1C[C@@H]2CC[C@@H](C)[C@@](O)(O2)C(=O)C(=O)N2CCCC[C@H]2C(=O)O[C@H]([C@H](C)C[C@@H]2CC[C@@H](O)[C@H](OC)C2)CC(=O)[C@H](C)/C=C(\C)[C@@H](O)[C@@H](OC)C(=O)[C@H](C)C[C@H](C)/C=C/C=C/C=C/1C [rapamycin]
tolerability (fixed high dose monotherapy): well tolerated
increase in rapamycin levels in combination compared to rapamycin alone (monkeys, fixed doses of both drugs in combination): 5 fold
diabetes ([1]; nonhuman primates): not
diabetes ([1]; rats): causes diabetes
body weight effect ([1]; several species): weight loss
